Laboratory results from US11306081B2, “Phenylacetamides as inhibitors of rock” (BRISTOL-MYERS SQUIBB COMPANY, priority 2017, dated 2022).

biological target: ROCK2 (Homo sapiens (Human), UniProt O75116); assay: ROCK assay (LABCHIP 3000 peptide phosphorylation assay); assay type: biochemical; conditions: 5 μM ATP, 1.5 μM peptide substrate, dose-response
Method: The effectiveness of compounds of the present invention as ROCK inhibitors can be determined in a 30 μL assay containing 20 mM HEPES, pH 7.5, 20 mM MgCl2, 0.015% Brij-35, 4 mM DTT, 5 μM ATP and 1.5 μM peptide substrate (FITC-AHA-AKRRRLSSLRA-OH) (SEQ ID No. 1). Compounds were dissolved in DMSO so that the final concentration of DMSO was <2%, and the reaction was initiated with Rho kinase variants. After incubation, the reaction was terminated by the addition of EDTA and the phosphorylated and non-phosphorylated peptides separated using a LABCHIP® 3000 Reader (Caliper Life Sciences). […] Compounds were tested in dose-response format, and the inhibition of kinase activity was calculated at each concentration of compound. The inhibition data were fit using a curve-fitting program to determine the IC50; i.e., the concentration of compound required to inhibit 50% of kinase activity.

Chain of ROCK2 (O75116 whole entry, species assumed): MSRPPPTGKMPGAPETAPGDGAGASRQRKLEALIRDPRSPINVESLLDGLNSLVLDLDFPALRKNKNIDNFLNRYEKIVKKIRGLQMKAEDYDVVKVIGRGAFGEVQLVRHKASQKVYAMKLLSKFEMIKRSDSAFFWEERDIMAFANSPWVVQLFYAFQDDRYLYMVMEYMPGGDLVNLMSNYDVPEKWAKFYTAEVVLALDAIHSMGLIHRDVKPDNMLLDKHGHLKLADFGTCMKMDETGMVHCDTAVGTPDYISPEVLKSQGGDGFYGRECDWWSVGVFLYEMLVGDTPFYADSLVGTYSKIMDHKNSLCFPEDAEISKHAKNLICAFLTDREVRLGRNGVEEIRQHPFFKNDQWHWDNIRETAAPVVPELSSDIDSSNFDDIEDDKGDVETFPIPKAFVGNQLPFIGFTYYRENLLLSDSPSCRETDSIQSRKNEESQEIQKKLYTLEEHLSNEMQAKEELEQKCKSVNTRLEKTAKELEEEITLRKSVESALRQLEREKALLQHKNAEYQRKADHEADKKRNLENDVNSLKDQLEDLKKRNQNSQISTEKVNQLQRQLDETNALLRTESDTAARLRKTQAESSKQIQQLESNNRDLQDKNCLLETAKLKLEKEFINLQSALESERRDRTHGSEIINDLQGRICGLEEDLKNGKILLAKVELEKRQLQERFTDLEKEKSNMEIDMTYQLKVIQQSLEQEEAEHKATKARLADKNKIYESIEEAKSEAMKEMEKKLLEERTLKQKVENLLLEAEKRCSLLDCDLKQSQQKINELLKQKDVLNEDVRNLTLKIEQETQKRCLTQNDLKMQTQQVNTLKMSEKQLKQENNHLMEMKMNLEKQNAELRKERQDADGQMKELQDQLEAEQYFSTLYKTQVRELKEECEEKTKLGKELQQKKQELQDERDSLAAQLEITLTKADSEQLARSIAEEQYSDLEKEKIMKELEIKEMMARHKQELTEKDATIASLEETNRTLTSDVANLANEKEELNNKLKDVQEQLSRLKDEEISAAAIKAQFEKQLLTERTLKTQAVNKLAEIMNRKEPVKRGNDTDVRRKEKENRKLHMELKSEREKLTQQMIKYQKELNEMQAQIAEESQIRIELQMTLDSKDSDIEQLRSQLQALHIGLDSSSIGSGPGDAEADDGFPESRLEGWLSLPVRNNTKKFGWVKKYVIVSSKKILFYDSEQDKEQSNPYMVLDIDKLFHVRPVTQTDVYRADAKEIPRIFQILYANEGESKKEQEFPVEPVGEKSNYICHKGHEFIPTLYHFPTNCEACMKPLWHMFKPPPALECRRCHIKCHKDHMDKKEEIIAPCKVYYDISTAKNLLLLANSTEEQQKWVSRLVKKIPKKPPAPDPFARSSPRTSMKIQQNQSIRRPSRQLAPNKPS

IC50 [nM]	SMILES
1230	CP(C)(=O)c1ccc2nc(NC(=O)Cc3ccc(Oc4ncccc4C(N)=O)c(F)c3)cn2c1 [Example 149, 2-(4-(2-((6-(dimethyl-phosphoryl)imidazo-[1,2-a]pyridin-2-yl)-amino)-2-oxoethyl)-2-fluorophenoxy)-nicotinamide]
17	Cc1sc(NC(=O)Cc2ccc(Oc3ncccc3C(N)=O)c(Cl)c2)nc1-c1ccc(F)nc1 [Example 103, 2-(2-chloro-4-(2-((4-(6-fluoropyridin-3-yl)-5-methylthiazol-2-yl)amino)-2-oxoethyl)phenoxy) nicotinamide]
9	NC(=O)c1cccnc1Oc1ccc(CC(=O)Nc2nc3cc(-c4cnn(C(F)F)c4)ccc3s2)cc1F [Example 029, 2-(4-(2-((5-(1-(difluoromethyl)-1H-pyrazol-4-yl)benzo[d]thiazol-2-yl)amino)-2-oxoethyl)-2-fluorophenoxy)nicotin-amide]
8	[2H]C([2H])([2H])n1ccc(-c2ccc3sc(NC(=O)Cc4ccc(Oc5ncccc5C(N)=O)c(F)c4)nc3c2)n1 [Example 034, 2-(2-fluoro-4-(2-((5-(1-(methyl-d3)-1H-pyrazol-3-yl)benzo[d]thiazol-2-yl)amino)-2-oxoethyl)phenoxy)nico-tinamide]
213	COc1ccc(Cc2nnc(NC(=O)Cc3ccc(Oc4ncccc4C(N)=O)c(F)c3)s2)cc1OC [Example 093, 2-(4-(2-((5-(3,4-dimethoxybenzyl)-1,3,4-thiadiazol-2-yl)amino)-2-oxoethyl)-2-fluorophenoxy)nico-tinamide]
471	Cc1sc(NC(=O)Cc2ccc(Oc3ncccc3C(N)=O)c(F)c2)nc1-c1cnc(C(C)(C)O)nc1 [Example 042, 2-(2-fluoro-4-(2-((4-(2-(2-hydroxypropan-2-yl)pyrimidin-5-yl)-5-methylthiazol-2-yl)amino)-2-oxoethyl)phenoxy)nico-tinamide]
301	NC(=O)c1cccnc1Oc1ccc(CC(=O)Nc2nc3ccc(F)cn3n2)cc1F [Example 128, 2-(2-fluoro-4-(2-((6-fluoro-[1,2,4]-triazolo[1,5-a]-pyridin-2-yl)amino)-2-oxoethyl)phenoxy)-nicotinamide]
419	NC(=O)c1cccnc1Oc1ccc(CC(=O)Nc2nnc(-c3cccnc3)s2)cc1F [Example 090, 2-(2-fluoro-4-(2-oxo-2-((5-(pyridin-3-yl)-1,3,4-thiadiazol-2-yl)amino)ethyl)phe-noxy)nicotinamide]
49	COC(=O)Nc1cc(-c2nc(NC(=O)Cc3ccc(Oc4ncccc4C(N)=O)c(F)c3)sc2C)ccn1 [Example 019, methyl (4-(2-(2-(4-((3-carbamoylpyridin-2-yl)oxy)-3-fluorophenyl)acetamido)-5-methylthiazol-4-yl)pyridin-2-yl)carbamate]
339	N#Cc1cccc(-c2csc(NC(=O)Cc3ccc(Oc4ncccc4C(N)=O)cc3)n2)c1 [Example 063, 2-(4-(2-((4-(3-cyanophenyl)thia-zol-2-yl)amino)-2-oxoethyl)phenoxy) nicotinamide]
6	COc1ccn2nc(NC(=O)Cc3ccc(Oc4ncccc4C(N)=O)c(Br)c3)nc2c1 [Example 119, 2-(2-bromo-4-(2-((7-methoxy-[1,2,4]triazolo[1,5-a]pyridin-2-yl)amino)-2-oxoethyl)phenoxy)nicotinamide]
44	Cc1cccc(-c2nc(NC(=O)Cc3ccc(Oc4ncccc4C(N)=O)c(F)c3)sc2C)n1 [Example 151, 2-(2-fluoro-4-(2-((5-methyl-4-(6-methylpyridin-2-yl)thiazol-2-yl)amino)-2-oxoethyl)phenoxy)nicotinamide]
11	Cc1nn(C)cc1-c1ccn2nc(NC(=O)Cc3ccc(Oc4ncccc4C(N)=O)c(F)c3)nc2c1 [Example 136, 2-(4-(2-((7-(1,3-dimethyl-1H-pyrazol-4-yl)-[1,2,4]-triazolo[1,5-a]pyridin-2-yl)amino)-2-oxoethyl)-2-fluorophen-oxy)nicotin-amide]
18	Cn1nc(C(F)(F)F)cc1-c1ccc2sc(NC(=O)Cc3ccc(Oc4ncccc4C(N)=O)c(F)c3)nc2c1 [Example 006, 2-(2-fluoro-4-(2-((5-(1-methyl-3-(trifluoromethyl)-1H-pyrazol-5-yl)benzo[d]thiazol-2-yl)amino)-2-oxoethyl)phenoxy) nicotinamide]
72	NC(=O)c1cccnc1Oc1ccc(CC(=O)Nc2nc3cc(F)ccn3n2)cc1F [Example 142, 2-(2-fluoro-4-(2-((7-fluoro-[1,2,4]triazolo[1,5-a]pyridin-2-yl)amino)-2-oxoethyl)phenoxy)nicotinamide]
13	NC(=O)c1cccnc1Oc1ccc(CC(=O)Nc2nc3c(F)cccc3n2CC(F)F)cc1F [Example 169, 2-(4-(2-((1-(2,2-difluoroethyl)-4-fluoro-1H-benzo[d]-imidazol-2-yl)-amino)-2-oxo-ethyl)-2-fluoro-phenoxy)nicotin-amide]
162	CC(C)(O)COc1ccc2c(c1)N(C(=O)Cc1ccc(Oc3ncccc3C(N)=O)c(F)c1)CC2 [Example 114, 2-(2-fluoro-4-(2-(6-(2-hydroxy-2-methylpropoxy)indolin-1-yl)-2-oxoethyl)phenoxy)nicotinamide]

IC50 [nM]	SMILES
181	NC(=O)c1cccnc1Oc1ccc(CC(=O)Nc2nc3ccccc3n2Cc2ccccc2)cc1Cl [Example 079, 2-(4-(2-((1-benzyl-1H-benzo[d]imidazol-2-yl)amino)-2-oxoethyl)-2-chlorophenoxy)nico-tinamide]
6	CC(C)(O)COc1ccc2sc(NC(=O)Cc3ccc(Oc4ncccc4C(N)=O)c(Cl)c3)nc2c1 [Example 112, 2-(2-chloro-4-(2-((5-(2-hydroxy-2-methylpropoxy)benzo[d]thiazol-2-yl)amino)-2-oxoethyl)phenoxy)nicotinamide]
176	Cc1sc(NC(=O)Cc2ccc(Oc3ncccc3C(N)=O)c(F)c2)nc1-c1ccc(F)nc1 [Example 085, 2-(2-fluoro-4-(2-((4-(6-fluoropyridin-3-yl)-5-methylthiazol-2-yl)amino)-2-oxoethyl)phenoxy) nicotinamide]
26	NC(=O)c1cccnc1Oc1ccc(CC(=O)Nc2nc3cc(F)ccc3n2CC2CC2)cc1F [Example 165]
3	Cc1nn(C)cc1-c1ccc2sc(NC(=O)Cc3ccc(Oc4ncccc4C(N)=O)c(F)c3)nc2c1 [Example 004, 2-(4-(2-((5-(1,3-dimethyl-1H-pyrazol-4-yl)benzo[d]thiazol-2-yl)amino)-2-oxoethyl)-2-fluorophenoxy)nicotinamide]
35	COc1ccc2sc(NC(=O)Cc3ccc(Oc4ncccc4C(N)=O)cc3)nc2c1 [Example 002, 2-(4-(2-((5-methoxybenzo[d]thiazol-2-yl)amino)-2-oxoethyl)phenoxy) Nicotinamide]
8	NC(=O)c1cccnc1Oc1ccc(CC(=O)Nc2nc3c(F)cccc3n2CC(F)F)cc1Cl [Example 173, 2-(2-chloro-4-(2-((1-(2,2-difluoro-ethyl)-4-fluoro-1H-benzo[d]-imidazol-2-yl)-amino)-2-oxo-ethyl)phenoxy)-nicotinamide]
14	Cc1nccc(-c2nc(NC(=O)Cc3ccc(Oc4ncccc4C(N)=O)c(F)c3)sc2C)n1 [Example 089, 2-(2-fluoro-4-(2-((5-methyl-4-(2-methylpyrimidin-4-yl)thiazol-2-yl)amino)-2-oxoethyl)phenoxy) nicotinamide]
57	COC(=O)c1ccc2nc(NC(=O)Cc3ccc(Oc4ncccc4C(N)=O)cc3)sc2c1 [Example 070, methyl 2-(2-(4-((3-carbamoylpyridin-2-yl)oxy)phenyl)acet-amido)benzo[d]thi-azole-6-carboxylate]
804	COCCn1c(NC(=O)Cc2ccc(Oc3ncccc3C(N)=O)c(F)c2)nc2ccc(OC)cc21 [Example 157, 2-(2-fluoro-4-(2-((6-methoxy-1-(2-methoxyethyl)-1H-benzo[d]-imidazol-2-yl)-amino)-2-oxo-ethyl)phenoxy)-nicotinamide]
30	Cn1cc(-c2ccc3c(c2)nc(NC(=O)Cc2ccc(Oc4ncccc4C(N)=O)c(F)c2)n3CC(F)(F)F)cn1 [Example 038, 2-(2-fluoro-4-(2-((5-(1-methyl-1H-pyrazol-4-yl)-1-(2,2,2-trifluoroethyl)-1H-benzo[d]imidazol-2-yl)amino)-2-oxoethyl)phenoxy)nico-tinamide]
126	Cc1cnc(NC(=O)Cc2ccc(Oc3ncccc3C(N)=O)c(F)c2)s1 [Example 088, 2-(2-fluoro-4-(2-((5-methylthiazol-2-yl)amino)-2-oxoethyl)phenoxy) nicotinamide]
47	COc1ccc2c(c1)nc(NC(=O)Cc1ccc(Oc3ncccc3C(N)=O)c(F)c1)n2CC1CC1 [Example 162, 2-(4-(2-((1-(cyclopropyl-methyl)-5-methoxy-1H-benzo[d]-imidazol-2-yl)-amino)-2-oxoethyl)-2-fluorophenoxy)-nicotinamide]
137	Cc1sc(NC(=O)Cc2ccc(Oc3ncccc3C(N)=O)c(F)c2)nc1-c1ccnn1C [Example 086, 2-(2-fluoro-4-(2-((5-methyl-4-(1-methyl-1H-pyrazol-5-yl)thiazol-2-yl)amino)-2-oxoethyl)phenoxy) nicotinamide]
99	COc1ncc(-c2nc(NC(=O)Cc3ccc(Oc4ncccc4C(N)=O)c(F)c3)sc2C)cn1 [Example 040, 2-(2-fluoro-4-(2-((4-(2-methoxypyrimidin-5-yl)-5-methylthiazol-2-yl)amino)-2-oxoethyl)phenoxy)nico-tinamide]
863	NC(=O)c1cccnc1Oc1ccc(CC(=O)Nc2nc(-c3cccc(OC(F)(F)F)c3)cs2)cc1 [Example 062]
